Assay results taken from paper PMC5369532, “NMR-filtered virtual screening leads to non-metal chelating metallo-β-lactamase inhibitors” (Chemical Science, 2016).
“Also recorded” adds a separate entry of the source. Read-outs that look alike come from different tables or passages of the source.

Experiments:
VIM-2 = molecular target: T1, VIM-2 (Escherichia coli, UniProt Q5U7L7); assay: biochemical; type: biochemical; details: for differences between the inhibitory activity with or without excess Zn(II): 0 μM, 1 μM and 100 μM Zn(II)
T1 construct: made in house; host or cells: Escherichia coli
Procedure: (§1) Except where noted, recombinant forms of NDM-1, VIM-2, SPM-1, IMP-1, and BcII MBLs were produced in Escherichia coli and assays were carried out as described previously10. The IC50 values of all the compounds for VIM-2 were determined using […]
concentrations (0 μM, 1 μM, and 100 μM, see Fig. S8). The selectivity profiles of […]
as described above. The inhibitory activities of these compounds against CphA (B2 […]
MBL; IMP, Imipenemase; NDM, New Delhi MBL; TEM-1: Temomeira-type 1 […]
b The enzyme concentrations of the purified proteins were determined by measuring Abs@280nm using a NanoDrop (ThermoFisher) spectrometer and calculated molar extinction coefficient for each sample; concentrations of diluted solutions used in the assay were calculated from the original concentration. […]
negative controls. These were tested in same assay conditions but at 2mM instead of 100uM compound concentration. […]

di-Zn(II) VIM-2 = molecular target: T2, di-Zn(II) VIM-2 (Escherichia coli, UniProt Q5U7L7); type: binding; details: 50 μM enzyme, 50 μM Zn(II), 50 μM compound, 50 mM Tris-D11 pH 7.5
T2 construct: made in house
Procedure: (§2) Except where noted, recombinant forms of NDM-1, VIM-2, SPM-1, IMP-1, and BcII MBLs were produced in Escherichia coli and assays were carried out as described […]
(§3) previously10. […]
(§4) Nuclear Magnetic Resonance (NMR) spectra were recorded using a Bruker AVIII 600 MHz NMR spectrometer equipped with a BB-19F/1H Prodigy N2 cryoprobe using 5 mm diameter NMR tubes (Norell). Typical experimental parameters for Carr-Purcell-Meiboom-Gill (CPMG) NMR spectroscopy were: total echo time, 40 ms; […]
(§5) The PROJECT-CPMG sequence
(§6) (90°x−[τ−180°y−τ−90°y−τ−180°y−τ]n−acq) was applied. 15 Water suppression was achieved by pre-saturation. Data were processed with Bruker 3.1 software. Prior to […]
(§7) Fourier transformation, data were multiplied with an exponential function with 0.5 Hz […]
(§8) line broadening. […]

apo-VIM-2 = apo-VIM-2 (Escherichia coli, UniProt Q5U7L7); type: binding; details: 50 μM apo enzyme, 50 μM compound, 50 mM Tris-D11 pH 7.5
Procedure: as §2, §3, §4, §5, §6, §7, §8

class B MBLs = assay: Selectivity profile against class B MBLs (Fig. S21); type: biochemical
Procedure: The 1H NMR and 13C NMR spectra for compounds 34a, 34b, 34, 35a, 35b, and 35 […]
as §1
the FC-5 based assay10. […]
concentrations (0 μM, 1 μM, and 100 μM, see Fig. S8). The selectivity profiles of compounds of interest against other B1 MBLs including VIM-511, VIM-110, NDM-1, SPM-1, and BcII, and TEM-112 (class A SBL) were determined using the same method as described above. The inhibitory activities of these compounds against CphA (B2 MBL)13 and L1 (B3 MBL)14 were determined using meropenem and nitrocefin, […]
at 100 μM. The details regarding enzyme concentrations, substrate concentration are in […]
Nuclear Magnetic Resonance (NMR) spectra were recorded using a Bruker AVIII 600 MHz NMR spectrometer equipped with a BB-19F/1H Prodigy N2 cryoprobe using 5 mm diameter NMR tubes (Norell). Typical experimental parameters for Carr-Purcell-Meiboom-Gill (CPMG) NMR spectroscopy were: total echo time, 40 ms; relaxation delay, 2 s; and number of transients, 128. The PROJECT-CPMG sequence (90°x−[τ−180°y−τ−90°y−τ−180°y−τ]n−acq) was applied. 15 Water suppression was achieved by pre-saturation. Data were processed with Bruker 3.1 software. Prior to […]

VIM-1 = VIM-1 (Pseudomonas aeruginosa, UniProt A0A0F7KYQ8); assay: biochemical; details: n ≥ 3
[1] = FC-5 based assay, n ≥ 3, read-out: IC50 (VIM-2)
[2] = FC-5 based assay, n ≥ 3, read-out: pIC50 (VIM-2) (converted)

With O=C(O)/C=C/C(=O)c1ccc(O)cc1 [Compound 1] the IC50 (VIM-2; IC50 (VIM-2)) was 637 µM.

O=C(O)C1CC(c2ccccc2F)=NO1 (stereo not shown) [Compound 2] was tested, and the IC50 (VIM-2; [1]) was 993 µM.

With NC(=O)N/N=C/c1cccc(C(=O)O)c1O [Compound 3] the IC50 (VIM-2; [1]) was > 1600 µM.

In the case of O=C(O)CC1CC(c2ccc(F)cc2)=NO1 (stereo not shown) [Compound 4], the IC50 (VIM-2; [1]) is reported as 557 µM.

In the case of CNCc1ccc(-c2cccc(C(=O)O)c2)o1 [Compound 5], the IC50 (VIM-2; [1]) is reported as > 1600 µM.

In the case of O=C(Cc1ccc(Cl)cc1)c1ccc(O)cc1O [Compound 6], the “differences between the inhibitory activity with or without excess Zn(II)” value (VIM-2) is reported as “no obvious differences”, the IC50 (VIM-2; [1]) is reported as 111 µM and the “binding to di-Zn(II) VIM-2 by 1H CPMG NMR” value (di-Zn(II) VIM-2) is reported as “strong binding; also recorded: strong binder”. For the same compound, the “binding to apo-VIM-2 by 1H CPMG NMR” value (apo-VIM-2) was “strong binding; also recorded: binds”.

With NC(=S)N/N=C1\C(=O)Nc2c(C(=O)O)cccc21 [Compound 7] the “differences between the inhibitory activity with or without excess Zn(II)” value (VIM-2) was “no obvious differences”, the IC50 (VIM-2; [1]) was 199 µM and the “binding to di-Zn(II) VIM-2 by 1H CPMG NMR” value (di-Zn(II) VIM-2) was “binding; also recorded: binds”. For the same compound, the “binding to apo-VIM-2 by 1H CPMG NMR” value (apo-VIM-2) was “binding”.

With Cc1c/c(=N\c2ccccc2C(=O)O)n2ncnc2[nH]1 [Compound 8] the IC50 (VIM-2; [1]) was > 1600 µM.

Cc1ccc(-c2cn3nnc(C(=O)O)c3c(=O)[nH]2)cc1 [Compound 9] gave an IC50 (VIM-2; [1]) of 439 µM.

With Cc1oc2c(c1C(=O)O)C(=O)CC(c1ccccc1)C2 (stereo not shown) [Compound 10] the IC50 (VIM-2; [1]) was > 1600 µM.

O=C(O)CCC(NS(=O)(=O)c1ccccc1)C(=O)O (stereo not shown) [Compound 11] gave an IC50 (VIM-2; IC50 (VIM-2)) of 1110 µM and an IC50 (VIM-2; pIC50 (VIM-2)) of 1100 µM.

With O=C(O)C(=Cc1ccc(-c2ccc(Cl)cc2)o1)C(=O)O [Compound 12] the “inhibition of the tested class B MBLs (in words)” value (class B MBLs) was “broad-spectrum inhibition”, the “differences between the inhibitory activity with or without excess Zn(II)” value (VIM-2) was “no obvious differences” and the IC50 (VIM-2; [1]) was 87 µM. The “binding to di-Zn(II) VIM-2 by 1H CPMG NMR” value (di-Zn(II) VIM-2) was “strong binding; also recorded: binds strongly” and the “binding to apo-VIM-2 by 1H CPMG NMR” value (apo-VIM-2) was “weak binding; also recorded: weakly”.

In the case of CN(C)c1ccc(/C=C/C(=O)c2ccccc2C(=O)O)cc1 [Compound 13], the “inhibition of the tested class B MBLs (in words)” value (class B MBLs) is reported as “broad-spectrum inhibition”, the “differences between the inhibitory activity with or without excess Zn(II)” value (VIM-2) is reported as “no obvious differences” and the IC50 (VIM-2; [1]) is reported as 135 µM. The “binding to di-Zn(II) VIM-2 by 1H CPMG NMR” value (di-Zn(II) VIM-2) was “strong binding; also recorded: binds strongly” and the “binding to apo-VIM-2 by 1H CPMG NMR” value (apo-VIM-2) was “weak binding; also recorded: weakly”.

O=C(O)C(Cc1ccc(O)cc1)NC1CCS(=O)(=O)C1 (stereo not shown) [Compound 14] gave an IC50 (VIM-2; [1]) of 669 µM and an IC50 (VIM-2; [2]) of 661 µM.

With CC(=O)Nc1ccc(S(=O)(=O)N2CCCC2C(=O)O)cc1 (stereo not shown) [Compound 15] the IC50 (VIM-2; [1]) was > 1600 µM.

For O=C(O)c1cccc(/C=N/N=C/c2cccc(C(=O)O)c2O)c1O [Compound 18], the IC50 (VIM-2; [1]) was 117 µM, the “binding to di-Zn(II) VIM-2 by 1H CPMG NMR” value (di-Zn(II) VIM-2) was “binding; also recorded: binds” and the “binding to apo-VIM-2 by 1H CPMG NMR” value (apo-VIM-2) was “binding; also recorded: binds”.

In the case of Cc1cc(N/N=C/c2ccc(O)c(C(=O)O)c2)nc(-c2ccccc2O)n1 [Compound 20], the “differences between the inhibitory activity with or without excess Zn(II)” value (VIM-2) is reported as “no obvious differences” and the IC50 (VIM-2; [1]) is reported as < 400 µM.

In the case of O=C(O)c1cccc2c1C(=O)N(Cc1cccnc1)C2 [Compound 21], the IC50 (VIM-2; [1]) is reported as 349 µM and the IC50 (VIM-1) is reported as > 400 µM.

With O=C(O)c1cccc2c1C(=O)N(Cc1ccncc1)C2 [Compound 22] the IC50 (VIM-2; [1]) was > 400 µM and the IC50 (VIM-1) was > 400 µM.

For O=C(O)c1cccc2c1C(=O)N(Cc1ccc(F)cc1)C2 [Compound 23], the IC50 (VIM-2; [1]) was 250 µM and the IC50 (VIM-1) was > 400 µM.

With O=C(O)c1cccc2c1C(=O)N(Cc1ccccc1F)C2 [Compound 24] the IC50 (VIM-2; [1]) was 47.1 µM and the IC50 (VIM-1) was > 400 µM.

With COc1ccc(CN2Cc3cccc(C(=O)O)c3C2=O)cc1OC [Compound 25] the IC50 (VIM-2; [1]) was 320 µM, the IC50 (VIM-2; [2]) was 316 µM and the IC50 (VIM-1) was > 400 µM.

With COc1cc(CN2Cc3cccc(C(=O)O)c3C2=O)cc(OC)c1OC [Compound 26] the IC50 (VIM-2; [1]) was > 400 µM and the IC50 (VIM-1) was > 400 µM.

With CN(C)c1ccc(CN2Cc3cccc(C(=O)O)c3C2=O)cc1 [Compound 27] the IC50 (VIM-2; [1]) was 176 µM, the IC50 (VIM-2; [2]) was 174 µM and the IC50 (VIM-1) was > 400 µM.

CC(c1ccccc1)N1Cc2cccc(C(=O)O)c2C1=O (stereo not shown) [Compound 28] was tested, and the IC50 (VIM-2; [1]) was 168 µM, the IC50 (VIM-2; [2]) was 166 µM and the IC50 (VIM-1) was > 400 µM.

For CC(c1ccncc1)N1Cc2cccc(C(=O)O)c2C1=O (stereo not shown) [Compound 29], the IC50 (VIM-2; [1]) was 229 µM and the IC50 (VIM-1) was > 400 µM.

O=C(O)c1cccc2c1C(=O)N(c1ccccc1)C2 [Compound 30] was tested, and the IC50 (VIM-2; [1]) was 17.8 µM and the IC50 (VIM-1) was > 400 µM.

With COc1ccccc1N1Cc2cccc(C(=O)O)c2C1=O [Compound 31] the IC50 (VIM-2; [1]) was 133 µM and the IC50 (VIM-1) was > 400 µM.

With COc1cccc(N2Cc3cccc(C(=O)O)c3C2=O)c1 [Compound 32] the IC50 (VIM-2; [1]) was 39.3 µM and the IC50 (VIM-1) was > 400 µM.

With O=C(O)c1cccc2c1C(=O)N(c1ccccc1Cl)C2 [Compound 33] the IC50 (VIM-2; [1]) was 74 µM and the IC50 (VIM-1) was > 400 µM.

CN(C)Cc1ccc(N2Cc3cccc(C(=O)O)c3C2=O)cc1 [Compound 34] was tested, and the IC50 (VIM-2; [1]) was 60.3 µM and the IC50 (VIM-1) was > 400 µM.

For O=C(O)c1cccc2c1C(=O)N(c1ccc(O)c(F)c1)C2 [Compound 35], the IC50 (VIM-2; [1]) was 7.7 µM and the IC50 (VIM-1) was > 400 µM.

In the case of O=C(O)c1cccc2c1C(=O)N(Cc1cccs1)C2 [Compound 36], the IC50 (VIM-2; [1]) is reported as 153 µM and the IC50 (VIM-1) is reported as > 400 µM.

For O=C(O)c1cccc2c1C(=O)N(C1CCCC1)C2 [Compound 37], the IC50 (VIM-2; [1]) was 68.1 µM and the IC50 (VIM-1) was > 400 µM.

In the case of O=C(O)c1cccc2c1C(=O)N(CC1CCCO1)C2 (stereo not shown) [Compound 38], the IC50 (VIM-2; [1]) is reported as > 400 µM and the IC50 (VIM-1) is reported as > 400 µM.

For O=C(O)c1cccc2c1C(=O)N(CCc1ccccc1)C2 [Compound 39], the IC50 (VIM-2; [1]) was 71.9 µM and the IC50 (VIM-1) was > 400 µM.

COCCCN1Cc2cccc(C(=O)O)c2C1=O [Compound 40] was tested, and the IC50 (VIM-2; [1]) was > 400 µM and the IC50 (VIM-1) was > 400 µM.

In the case of C=CCC1c2cccc(C(=O)O)c2C(=O)N1c1ccc(F)cc1 (stereo not shown) [Compound 41], the IC50 (VIM-2; [1]) is reported as 24.6 µM and the IC50 (VIM-1) is reported as > 400 µM.

For C=CCC1c2cccc(C(=O)O)c2C(=O)N1c1cccc(OC)c1 (stereo not shown) [Compound 42], the IC50 (VIM-2; [1]) was 20.3 µM and the IC50 (VIM-1) was > 400 µM.

In the case of C=CCC1c2cccc(C(=O)OC)c2C(=O)N1c1ccccc1 (stereo not shown) [Compound 43], the “inhibitory activity against VIM-2 (in words)” value (VIM-2) is reported as “much lower inhibitory potency”, the IC50 (VIM-2; [1]) is reported as > 400 µM and the IC50 (VIM-1) is reported as > 400 µM.

In the case of C[C@H](CS)C(=O)N1CCC[C@H]1C(=O)O [L-Captopril, reference compound], the “binding to di-Zn(II) VIM-2 by 1H CPMG NMR” value (di-Zn(II) VIM-2) is reported as “strong binding; also recorded: binds strongly” and the “binding to apo-VIM-2 by 1H CPMG NMR” value (apo-VIM-2) is reported as “very weak binding; also recorded: very weakly”.
